Laboratory results published in EP4818330A1, “PHARMACEUTICAL PREPARATION FOR DIAGNOSING AND TREATING ALZHEIMER'S DISEASE” (Shanghai East Hospital Tongji University, priority 2023, dated 2025).
Where “and” joins values, the source holds several entries; their conditions need not be identical. Equal entries are not always repeated. Where two headings read alike, the source gives them in different places.

How the values were obtained:
[1] = Drug content in brain tissue after single intraperitoneal administration; type: in vivo, Balb/c strain mice; conditions: mice; for concentration at 0.5 h: brain, ip
Method: Research method: first, Balb/c strain mice were administered with a single intraperitoneal injection at a concentration of 2.5 mg/kg, and the content of the compound in serum was detected at 0.25, 0.5, 1, 2, 4, 6, 8 and 24 h after injection; second, brain tissues of mice at 0.5, 4 and 24 h after injection were collected to detect the compound content, so as to evaluate the blood-brain barrier penetration rate.

primary neurons = test: CCK8 cell viability (toxicity) assay in primary neurons; type: cell-based, mouse; conditions: 24 h, CCK8, three replicate wells
Description: (§1) The CCK8 cell viability assay (CCK8) was adopted. Its principle is mainly based on the reduction reaction of WST-8 (chemical name: 2-(2-methoxy-4-nitrophenyl)-3-(4-nitrophenyl)-5-(2,4-disulfophenyl)-2H-tetrazolium monosodium salt). In the presence of living cells, WST-8 can be reduced by dehydrogenases in mitochondria to generate a highly water-soluble orange-yellow formazan product. The color intensity is directly proportional to the number of living cells, wherein the quantity of living cells can be indirectly reflected by measuring the absorbance of formazan products (typically at a wavelength of 450 nm). The CCK-8 assay is widely used in cell proliferation assay, cytotoxicity assay and tumor drug sensitivity test.
(§2) Primary hippocampal neuron culture: After ICR fetal mice at 18-21 days of gestation (E18-E21) were anesthetized, the fetal mice were dissected in a clean area and immersed in 75% ethanol for 1-2 min. The mouse head was taken out, the surface skull was removed with micro-scissors, and the brain tissue was transferred to an anatomical dissociation solution. Under a microscope, blood vessels and meninges were removed, hippocampal tissue was isolated, the extracted hippocampal tissue was placed in a 3.5 cm dish containing the anatomical dissociation solution, and the hippocampal tissue was cut into small fragments using micro-scissors. The minced hippocampal tissue was transferred to a 7 ml EP tube using a pipette gun. The hippocampal tissue hereinabove was centrifuged at 1000 rpm for 3-5 min, and the anatomical separation solution was discarded. 0.5-1 ml of papain digestion solution was added to the EP tube hereinabove, and the EP tube was placed in a 37°C incubator for 30 min. 300 µL of Trituration buffer 300 (DNase) and 5 mL of complete medium were added, and the hippocampal tissue was gently pipetted more than 10 times. The cell suspension was allowed to stand for 3 min, and 3-4 ml of supernatant was gently aspirated into a 15 ml tube using a pipette. 3-4 ml of complete medium was added again, and the hippocampal tissue was gently pipetted more than 10 times. Step 8 was repeated, and 3-4 ml of supernatant was transferred to the same 15 ml tube again. The previous step was repeated again. The collected supernatant was centrifuged at 1000 rpm, the supernatant was discarded, and 5 ml of complete medium was added. The mixture was gently pipetted and suspended, and then centrifuged again at 1000 rpm for 5 min. The complete medium was added to resuspend the cells, and then a portion of the cells was aspirated for counting. Generally, when neuronal cells were planted in a 24-well plate, the concentration of the cell suspension was generally 2×10^5/ml, and 500 µl of cells is inoculated per well. The resuspended neuron cells with a diluted ratio were seeded onto a glass slide treated with PDL, then the glass slide was placed in a 37°C incubator for 10 min, an appropriate amount of complete medium was added, and then the culture is continued in the incubator.

[2] = as above; type: cell-based, mouse; conditions: ICR, mouse, primary hippocampal neurons, 24 h, CCK8, three replicate wells
Description: as §1, §2

APP/PS1 transgenic mice [3] = test: Dendritic spine density of hippocampal neurons in brain slices of AD mice; type: in vivo
Method: (§3) Thy1-GFP mice are commonly used in neuroscience research. The fluorescence labeling of GFP facilitates convenient observation and tracking of specific cell types, especially neurons. APP/PS1 transgenic mice (an animal model of Alzheimer's disease) were crossed with Thy1-GFP mice. The crossed mice aged 5 months were intraperitoneally injected with a compound solution at a concentration of 2.5 mg/kg for 1 month continuously. Subsequently, the crossed mice aged 6 months were subjected to behavioral test (Morris water maze MWM experiment) to evaluate learning and memory abilities (as shown in FIG. 22).
After the water maze behavioral test, the mice were anesthetized and perfused, and then brain tissue sections were taken. The density of neuronal dendritic spines was observed under a confocal fluorescence microscope using GFP green fluorescence.

APP/PS1 transgenic mice [4] = test: Morris water maze in APP/PS1 x Thy1-GFP mice; type: in vivo
Method: as §3
Water maze: A water maze experimental apparatus is circular stainless steel with a diameter of 100 cm and a height of 50 cm, wherein a pool is equally divided into 4 quadrants according to the 4 orientations of east, south, west and north, a circular black hidden platform with a diameter of 9 cm and a height of 27 cm is placed in the center of the target quadrant. […] The movement trajectory of the mouse was synchronously recorded by the camera directly above the water pool, and analyzed by the EthovisionXT monitoring and analysis system. […] The mouse swam in the water for 60 s, and the percentage of time the mouse spent in the target platform quadrant was recorded, representing the learning and memory ability of the mouse.

With `CCOC(=O)c1[nH]c(C)c(CCC(=O)N2CCCC(C(=O)NCCN3CCCCCC3)C2)c1C` (centres unmarked) [compound of Formula I, ETHYL4-[3-(3-{[2-(AZEPAN-1-YL)ETHYL]CARBAMOYL}PIPERIDIN-1-YL)-3-OXOPROPYL]-3, 5-DIMETHYL-1H-PYRROLE-2-CARBOXYLATE] the concentration at 0.5 h ([1]; Balb/c, mouse, 2.5 mg/kg, IP 2.5 mg/kg, 0.5 hr, individual animals, read-out: Concentration (brain tissue)) was 16.8 ng/mL, the concentration at 0.5 h ([1]; Balb/c, mouse, 2.5 mg/kg, IP 2.5 mg/kg, 0.5 hr, mean of 3 animals, read-out: Concentration (brain tissue) Mean) was 13.8 ng/mL and the Kp at 0.5 h ([1]; Balb/c, mouse, IP 2.5 mg/kg, 0.5 hr, brain tissue vs blood) was 0.037. For the same compound, the “Concentration (brain tissue)” value ([1]; IP 2.5 mg/kg, 0.5 hr, individual animals, 2.5 mg/kg) was 10.3 ng/mL and 14.4 ng/mL, the “Concentration (brain tissue)” value ([1]; IP 2.5 mg/kg, 4 hr, individual animals) was “BLOQ (BLOQ = Below LOQ, LOQ = 2.0 ng/mL)” and the “Concentration (brain tissue) Mean” value ([1]; IP 2.5 mg/kg, 4 hr, mean of 3 animals) was “BLOQ (BLOQ = Below LOQ, LOQ = 2.0 ng/mL)”. For the same compound, the “Concentration (brain tissue)” value ([1]; IP 2.5 mg/kg, 24 hr, individual animals) was “BLOQ (BLOQ = Below LOQ, LOQ = 2.0 ng/mL)”, the “Concentration (brain tissue) Mean” value ([1]; IP 2.5 mg/kg, 24 hr, mean of 3 animals) was “BLOQ (BLOQ = Below LOQ, LOQ = 2.0 ng/mL)” and the blood-brain barrier penetration ([1]; brain tissue 0.5 h after single IP injection 2.5 mg/kg) was “capable of crossing the blood-brain barrier”. For the same compound, the cell viability (primary neurons; 1.25 µmol) was 88.68% and 77.1%, the cell viability (primary neurons; 5 µmol) was 77.35% and 75.31% and the cell viability (primary neurons; 10 µmol) was 58.82% and 65.03%. For the same compound, the cell viability (primary neurons; 20 µmol) was 40.38% and 35.57%, the cell viability (primary neurons; 40 µmol) was 23.14% and 48.19% and 36.68% and the cell viability (primary neurons; 160 µmol) was 3.329% and 5.244%. The viability at 24 h, 1.25 µmol ([2]; 1.25 µmol) was 94.5%, the viability at 24 h, 5 µmol ([2]; 5 µmol) was 70.7% and the viability at 24 h, 10 µmol ([2]; 10 µmol) was 51.8%. For the same compound, the viability at 24 h, 20 µmol ([2]; 20 µmol) was 37.1%, the viability at 24 h, 80 µmol ([2]; 80 µmol) was 4.02% and the viability at 24 h, 160 µmol ([2]; 160 µmol) was 4.65%. The viability at 24 h, 2.5 µmol [2] was 90.6%, the “dendritic spine density of hippocampal neurons (normalized to the control group)” value (APP/PS1 transgenic mice [3]; APP SW + intervention, IP 2.5 mg/kg for 1 month, brain slices, individual neurons, 2.5 mg/kg) was 0.7721 and 0.7284 and 0.6276 and 0.7954 and 0.8425 and 0.7853 and the “dendritic spine density of hippocampal neurons” value (APP/PS1 transgenic mice [3]; after compound intervention vs AD mice) was “increased”. For the same compound, the “time percentage in the platform quadrant” value (APP/PS1 transgenic mice [4]; APP/PS1+ intervention, IP 2.5 mg/kg for 1 month, day 7 spatial exploration, individual animals, 2.5 mg/kg) was 12.17% and 26.78% and 27.89% and 19.335% and 31.945% and 22% and 29.11% and the “time percentage of mice in the platform quadrant” value (APP/PS1 transgenic mice [4]; after compound intervention vs APP/PS1 mice) was “increased”.
